Test system: plasmid DNA (pDNA)
Test: Gel shift (mobility shift) assay of pDNA complexation
Type: binding
Settings: pDNA:molecule ratio 3:24 (w:w), 0.8% agarose gel, compared to pDNA alone
Procedure: Then, 10 μl of pDNA:TLR7-TLR2 polyamine molecule complexes and 2 μl of charge buffer were mixed and loaded into wells of a 0.8% agarose gel. Samples were migrated through the gel in TAE buffer under 135 voltage for 21 mins and the migration of the pDNA was visualized following ethidium bromide staining under UV light. The ability of TLR7-TLR2 polyamine molecules to complex/associate with the pDNA was identified by partial or complete retardation of the pDNA migration toward the anode in the gel compared to pDNA alone. […] Ethidium bromide intercalation of pDNA in complex with molecules allowed visualization of complexed pDNA as a smear in the wells of the gel.

CCCCCCCCCCCCCCCC(=O)OCC(CSC[C@H](N)C(=O)Nc1ccc(Cn2c(O)nc3c(N)nc(NCCCC)nc32)cc1)OC(=O)CCCCCCCCCCCCCCC (stereo partly shown) [CL401, reference compound] was tested, and the “ability to complex pDNA (retardation of pDNA migration in agarose gel)” value was “lacks the ability to complex pDNA”.
